# Experimental data: article PMC5609037, “Selective inhibition of PfA-M1, over PfA-M17, by an amino-benzosuberone derivative blocks malaria parasites development in vitro and in vivo” (Malaria Journal, 2017)
# Experiments:
# [1] = target: T1, PfA-M1 (P. falciparum alanyl aminopeptidase, M1 family aminopeptidase) (Plasmodium falciparum, UniProt O96935); assay: Ala-pNA hydrolysis at […] nm, Ki by Dixon plots; assay type: biochemical
# T1 construct: gene M1AAP; residues 192–1085, N-terminal hexahistidine tag, recombinant from E. coli
# T1 sequence (O96935 192-1085): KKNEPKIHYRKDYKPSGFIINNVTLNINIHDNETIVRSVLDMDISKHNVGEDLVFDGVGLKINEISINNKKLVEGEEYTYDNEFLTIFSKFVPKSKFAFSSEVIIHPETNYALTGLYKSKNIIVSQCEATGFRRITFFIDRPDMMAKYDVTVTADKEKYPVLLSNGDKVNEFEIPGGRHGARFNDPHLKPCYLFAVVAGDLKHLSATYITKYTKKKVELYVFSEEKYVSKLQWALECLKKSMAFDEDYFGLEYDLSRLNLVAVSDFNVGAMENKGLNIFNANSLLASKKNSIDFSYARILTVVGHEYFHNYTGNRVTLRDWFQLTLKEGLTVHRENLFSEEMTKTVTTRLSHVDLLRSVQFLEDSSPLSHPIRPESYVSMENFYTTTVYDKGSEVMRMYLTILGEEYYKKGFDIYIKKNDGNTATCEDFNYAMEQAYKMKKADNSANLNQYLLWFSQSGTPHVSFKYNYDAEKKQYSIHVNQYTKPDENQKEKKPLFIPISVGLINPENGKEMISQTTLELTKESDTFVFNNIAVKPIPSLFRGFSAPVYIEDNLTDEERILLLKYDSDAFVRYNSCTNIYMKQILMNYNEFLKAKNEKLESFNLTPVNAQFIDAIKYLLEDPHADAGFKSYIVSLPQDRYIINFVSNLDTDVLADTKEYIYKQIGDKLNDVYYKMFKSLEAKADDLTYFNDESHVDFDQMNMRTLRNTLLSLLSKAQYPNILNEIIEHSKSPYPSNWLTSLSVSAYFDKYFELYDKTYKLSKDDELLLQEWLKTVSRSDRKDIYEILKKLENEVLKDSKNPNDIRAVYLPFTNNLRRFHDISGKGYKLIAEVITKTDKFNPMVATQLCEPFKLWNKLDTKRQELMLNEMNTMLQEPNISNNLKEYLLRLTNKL
# [2] = target: T2, PfA-M17 (P. falciparum leucyl aminopeptidase) (Plasmodium falciparum, UniProt Q8IL11); assay: Leu-pNA hydrolysis at […] nm, Ki by Dixon plots; assay type: biochemical
# T2 construct: gene LAP; residues 84–605, N-terminal hexahistidine tag, recombinant from E. coli
# T2 sequence (Q8IL11 84-605): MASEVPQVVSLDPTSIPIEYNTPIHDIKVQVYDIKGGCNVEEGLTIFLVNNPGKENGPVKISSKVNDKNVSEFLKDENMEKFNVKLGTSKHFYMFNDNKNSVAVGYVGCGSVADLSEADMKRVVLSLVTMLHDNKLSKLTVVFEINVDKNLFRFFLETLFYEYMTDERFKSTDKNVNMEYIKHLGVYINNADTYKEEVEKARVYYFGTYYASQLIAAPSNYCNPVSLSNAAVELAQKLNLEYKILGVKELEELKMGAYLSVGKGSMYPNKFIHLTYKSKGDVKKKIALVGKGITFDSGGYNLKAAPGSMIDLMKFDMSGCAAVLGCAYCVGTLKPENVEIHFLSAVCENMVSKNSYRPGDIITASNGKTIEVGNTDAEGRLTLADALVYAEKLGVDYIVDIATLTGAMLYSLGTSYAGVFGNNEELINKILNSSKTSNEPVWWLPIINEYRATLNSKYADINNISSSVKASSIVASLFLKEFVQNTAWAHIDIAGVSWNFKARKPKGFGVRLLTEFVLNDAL
compound,measurement,setting,value
CC(C)C[C@H](NC(=O)[C@@H](O)[C@H](N)Cc1ccccc1)C(=O)O [bestatin],Ki,[1],100 nM
same,Ki,[2],400 nM
